From patent US4719235A, “Methods and compositions for treating viral infection” (Kern; Gerald N., priority 1985, dated 1988)
Where two headings read alike, the source gives them in different places.

Legend:
[1] = test system: HSV-2; assay: Titration of HSV-2 after contact with docusate sodium solutions containing 10% fetal calf serum; type: cell-based, Herpes Simplex Type 2
[2] = test system: Influenza A virus; assay: Pretreatment of MDCK cells prior to exposure to Influenza A virus; settings: 0.1 mg/ml
Experimental: (§1) Virus infectivity was determined by cytopathic effects (CPE).
The same procedure was used for this example as was used for Example 24 except that MDCK cells were substituted for HeLa cells and Influenza A virus was substituted for Respiratory Syncytial Virus. Two experiments were run.

[3] = Cytotoxicity in solutions free of serum, MA-104; type: cell-based, monkey; design: key to MA-104 (toxicity): 0: Cells had normal morphology; 4+: >90% of cells showed CTE; settings: monkey, ma-104 cells, 0.2 mg/ml, 37° C., read-out: MA-104 (toxicity)
Experimental: (§2) The cell lines used to evaluate cytotoxicity of docusate sodium were MA-104 derived from monkey kidneys, HeLa derived from human uterine carcinoma and primary fibroblasts from human foreskin. The cells were grown to confluency in 60×15 mm dishes. The cell monolayers were washed free of growth medium and 5 ml of serum-less growth medium containing docusate sodium at various concentrations was added. The curtures were incubated 24 hours at 37° C. and the cells then examined microscopically for cytotoxic effects (CTE). Controls were done in the same manner except that they were not exposed to docusate sodium.

[4] = test system: MA-104; assay: Cytotoxicity in solutions free of serum, MA-104; type: cell-based, monkey; design: key to MA-104 (toxicity): 0: Cells had normal morphology; 4+: >90% of cells showed CTE; settings: 24 hours, 37° C.
Experimental: as §2

[5] = test system: HSV-2; assay: Titration of HSV-2 after contact with serum-free docusate sodium solutions (plaque assay on MA-104 cells); type: cell-based, Herpes Simplex Type 2
[6] = test system: Respiratory Syncytial Virus; assay: Pretreatment of HeLa cells prior to exposure to Respiratory Syncytial Virus; type: cell-based
Experimental: The same procedure was used for this example as was used for Example 21 except that HeLa cells were substituted for MA-104 cells, the docusate sodium solution contained 0.1 mg/ml of docusate sodium, and Respiratory Syncytial Virus was substantial for Rotavirus. Three experiments were run.
as §1

[7] = Cytotoxicity in solutions free of serum, foreskin fibroblasts; type: cell-based, human; design: key to Foreskin (toxicity): 0: Cells had normal morphology; 4+: >90% of cells showed CTE; settings: human, foreskin fibroblasts, 0.2 mg/ml, 37° C., read-out: Foreskin (toxicity)
Experimental: as §2

[8] = test system: primary fibroblasts from human foreskin; assay: as above; type: cell-based; design: key to Foreskin (toxicity): 0: Cells had normal morphology; 4+: >90% of cells showed CTE; settings: 24 hours, 37° C.
[9] = test system: HSV-2; assay: Pretreatment of MA-104 cells prior to exposure to HSV-2; type: cell-based, Herpes Simplex Type 2; settings: 0.02 mg/ml
Experimental: In this Example the effect that initially contacting (pretreating) MA-104 cells with docusate sodium has on subsequent exposure of such pretreated cells to HSV-2 virus was studied.
MA-104 cells were washed free of growth medium and the cells were exposed to 0.02 mg/ml docusate sodium in serum-less growth medium for one hour. The docusate sodium solution was poured off, the cells washed twice, and then exposed to appropriately diluted HSV-2. A control solution prepared as above except for exposure to docusate sodium was also provided. After one hour at 37° C., the cells were overlayed with agar and incubated for 3 days at 37° C. to allow plaques to develop.

[10] = test system: Influenza A virus; assay: Inactivation of Influenza A virus (CPE on MDCK cells); type: cell-based
[11] = test system: HeLa; assay: Cytotoxicity in solutions containing serum, HeLa; type: cell-based, human; design: key to HeLa (Cytotoxic effect): 0: Cells have normal morphology; 4+: >90% of cells showed CTE.; ±c: less than 10% of cells showed CTE; settings: 0.02 mg/ml, 2% fetal calf serum, 24 hours, 37° C.
Experimental: (§3) The cells were grown to confluency in 60×15 mm dishes. The cell monolayers were washed free of growth medium and 5 ml of serum-less growth medium containing docusate sodium at various concentrations was added. The curtures were incubated 24 hours at 37° C. and the cells then examined microscopically for cytotoxic effects (CTE). Controls were done in the same manner except that they were not exposed to docusate sodium.
(§4) The same procedure that was used for Example 17 was used for this Example except that the medium used for growing the cells contained 2% by volume fetal calf serum.

[12] = Cytotoxicity in solutions containing serum, HeLa; type: cell-based, human; design: key to HeLa (Cytotoxic effect): 0: Cells have normal morphology; 4+: >90% of cells showed CTE.; ±c: less than 10% of cells showed CTE; settings: human, hela cells, 2% fetal calf serum, 37° C., read-out: HeLa (Cytotoxic effect)
Experimental: as §3, §4

[13] = test system: Coxsackievirus B-5; assay: Titration of Coxsackievirus B-5 after contact with docusate sodium solutions; type: cell-based; settings: 0.2 mg/ml
[14] = test system: Adenovirus; assay: Titration of Adenovirus after contact with docusate sodium solutions (HeLa cells); type: cell-based; settings: 0.2 mg/ml
[15] = test system: HSV-2; assay: Treatment of MA-104 cells infected with HSV-2; type: cell-based, Herpes Simplex Type 2; settings: 0.02 mg/ml for one hour at 37° C., 6 and 24 hours after infection
Experimental: MA-104 cells were washed free of growth medium and exposed to appropriately diluted HSV-2 for one hour at 37° C. At 6 and 24 hours after infection, the MA-104 cells were exposed to a solution containing 0.02 mg of docusate sodium per ml of solution for one hour at 37° C. The docusate sodium solution was poured off, agar overlay added, and the exposed cells incubated for 3 days at 37° C. to provide for plaque development.

[16] = test system: HSV-II; assay: Duration of effect of pretreatment of MA-104 cells prior to exposure to HSV-II; type: cell-based, Herpes Simplex Type 2; settings: 0.02 mg/ml; for inhibition at 20 µg/mL: Human alphaherpesvirus 2, MA104, read-out: % Reduction In Infectivity
Experimental: MA-104 cell monolayers were washed twice with Earle's basal salt solution (EBSS) and a 0.02 mg/ml solution of docusate sodium was added to each culture dish. The culture dishes were incubated at 37° C. for one hour and the docusate sodium solutions poured off. The monolayers were then washed twice with EBSS and at appropriate time intervals infected with HSV-II. After the addition of overlay agar, the cultures were incubated at 37° C. for 3 days, stained with crystal voilet, and the plaques counted. Control cultures were treated in a similar manner except for exposure to docusate sodium.

[17] = cited from earlier work
[18] = test system: Rotavirus strain SA-11; assay: Titration of Rotavirus strain SA-11 after contact with docusate sodium solutions; type: cell-based; settings: for plaque forming units: 0.2 mg/ml; for pfu/ml: 1 mg/ml

Structure (SMILES): CCCCC(CC)COC(=O)CC(C(=O)OCC(CC)CCCC)S(=O)(=O)O (centres unmarked) [docusate sodium, 1,4-bis(2-ethylhexyl)sodium sulfosuccinate]
- concentration required for a given percentage of HSV-2 inactivation (conclusion) ([1]; 10% fetal calf serum vs serum absent): higher concentrations of docusate sodium were required
- killing at 10 µg/mL ([1]; Human alphaherpesvirus 2, 0.25 h, 0.01 mg/ml, 10% fetal calf serum, 15 min, 37° C., read-out: % Inactivation of HSV-2): 10%
- killing at 100 µg/mL ([1]; Human alphaherpesvirus 2, 0.25 h, 0.1 mg/ml, 10% fetal calf serum, 15 min, 37° C., read-out: % Inactivation of HSV-2): 10%
- killing at 200 µg/mL ([1]; Human alphaherpesvirus 2, 0.25 h, 0.2 mg/ml, 10% fetal calf serum, 15 min, 37° C., read-out: % Inactivation of HSV-2): 95%
- Presence of CPE ([2]; experiment 1, virus dilution 10^-1 (control +)): -
- Presence of CPE ([2]; experiment 1, virus dilution 10^-2 (control +)): -
- Presence of CPE ([2]; experiment 1, virus dilution 10^-3 (control -)): -
- Presence of CPE ([2]; experiment 1, virus dilution 10^-4 (control -)): -
- Presence of CPE ([2]; experiment 2, virus dilution 10^-2 (control +)): -
- Presence of CPE ([2]; experiment 2, virus dilution 10^-3 (control -)): -
- Presence of CPE ([2]; experiment 2, virus dilution 10^-4 (control -)): -
- cytotoxicity at 24 h [3]: > 90%
- MA-104 (toxicity) ([4]; 0.01 mg/ml): 0
- MA-104 (toxicity) ([4]; 0.05 mg/ml): 4+ (>90% of cells showed CTE.)
- MA-104 (toxicity) ([4]; 0.1 mg/ml): 4+ (>90% of cells showed CTE.)
- killing at 10 µg/mL ([5]; Human alphaherpesvirus 2, MA104, 0.25 h, 0.01 mg/ml, 15 min, 37° C., read-out: % Inactivation of HSV-2): 19%
- killing at 20 µg/mL ([5]; Human alphaherpesvirus 2, MA104, 0.25 h, 0.02 mg/ml, 15 min, 37° C., read-out: % Inactivation of HSV-2): 70%
- killing at 30 µg/mL ([5]; Human alphaherpesvirus 2, MA104, 0.25 h, 0.03 mg/ml, 15 min, 37° C., read-out: % Inactivation of HSV-2): 97%
- killing at 40 µg/mL ([5]; Human alphaherpesvirus 2, MA104, 0.25 h, 0.04 mg/ml, 15 min, 37° C., read-out: % Inactivation of HSV-2): 100%
- killing at 50 µg/mL ([5]; Human alphaherpesvirus 2, MA104, 0.25 h, 0.05 mg/ml, 15 min, 37° C., read-out: % Inactivation of HSV-2): 100%
- killing at 100 µg/mL ([5]; Human alphaherpesvirus 2, MA104, 0.25 h, 0.1 mg/ml, 15 min, 37° C., read-out: % Inactivation of HSV-2): 100%
- killing at 200 µg/mL ([5]; Human alphaherpesvirus 2, MA104, 0.25 h, 0.2 mg/ml, 15 min, 37° C., read-out: % Inactivation of HSV-2): 100%
- inactivation of HSV-2 (conclusion) ([5]; concentrations as low as 0.02 mg/ml): effectively inactivates HSV-2
- Presence of CPE [6]: - and +
- protection of HeLa cells against RSV infection (conclusion) [6]: confers partial protection on HeLa cells against RSV infection
- cytotoxicity at 24 h [7]: > 90%
- Foreskin (toxicity) ([8]; 0.01 mg/ml): 0
- Foreskin (toxicity) ([8]; 0.05 mg/ml): 4+ (>90% of cells showed CTE.)
- Foreskin (toxicity) ([8]; 0.1 mg/ml): 4+ (>90% of cells showed CTE.)
- plaque formation (conclusion) ([9]; pretreatment): substantial drop in plaque formation
- plaque forming units/ml (pfu/ml) ([9]; pretreatment one hour, serum-less (control 548)): 26 pfu/ml
- inhibition at 20 µg/mL ([9]; Human alphaherpesvirus 2, MA104, 1 h, pretreatment one hour, serum-less, read-out: % decrease in pfu): 95%
- Presence of CPE [10]: -
- inactivation of Influenza A virus (conclusion) [10]: readily inactivated
- HeLa (Cytotoxic effect) [11]: 0
- cytotoxicity at 24 h ([12]; 0.03 mg/ml): < 10%
- cytotoxicity at 24 h ([12]; 0.04 mg/ml): > 90%
- inactivation of Coxsackievirus B-5 (conclusion) [13]: did not inactivate Coxsackievirus B-5
- pfu/ml ([13]; exposure time 0 minutes (control 30,000)): 12,500 pfu/ml
- pfu/ml ([13]; exposure time 15 minutes): 23,000 pfu/ml
- pfu/ml ([13]; exposure time 60 minutes (control 25,500)): 30,000 pfu/ml
- effect on Adenovirus replication (conclusion) ([14]; contact time 60 minutes): did not have a significant effect on Adenovirus replication
- pfu/ml ([14]; exposure time 60 minutes (control 180,000)): 150,000 pfu/ml
- killing at 200 µg/mL ([14]; unidentified adenovirus, HeLa, 1 h, exposure time 60 minutes, read-out: % Inactivation): 17%
- inactivation of HSV-2 in cells infected prior to contact (conclusion) [15]: not effective in inactivating HSV-2 virus in cells infected with HSV-2
- pfu/ml ([16]; infection 0 hours after exposure (control 270,000)): 53,000 pfu/ml
- pfu/ml ([16]; infection 2 hours after exposure (control 30,000)): 14,000 pfu/ml
- pfu/ml ([16]; infection 24 hours after exposure (control 69,000)): 69,000 pfu/ml
- pfu/ml ([16]; infection 72 hours after exposure (control 69,000)): 58,000 pfu/ml
- duration of anti-herpes effect of pretreatment (conclusion) ([16]; one hour pretreatment): transitory
- inhibition at 20 µg/mL ([16]; infection 0 hours after exposure): 81%
- inhibition at 20 µg/mL ([16]; infection 2 hours after exposure): 54%
- inhibition at 20 µg/mL ([16]; infection 24 hours after exposure): 0%
- inhibition at 20 µg/mL ([16]; infection 72 hours after exposure): 16%
- solubility in alcohol ([17]; alcohol): freely soluble in alcohol
- solubility in water ([17]; water): slowly soluble in water
- plaque forming units ([18]; exposure time 0 minutes (control 17,000)): 16,000 pfu/ml
- plaque forming units ([18]; exposure time 15 minutes): 19,000 pfu/ml
- plaque forming units ([18]; exposure time 60 minutes (control 13,000)): 27,000 pfu/ml
- pfu/ml ([18]; exposure time 0 minutes (control 46,500)): 45,000 pfu/ml
- pfu/ml ([18]; exposure time 60 minutes (control 49,000)): 51,000 pfu/ml
- inactivation of Rotavirus SA-11 (conclusion) ([18]; 0.2 and 1 mg/ml): did not inactivate Rotavirus SA-11
